Here are results for 2 sequences from patent US20160251403A1, “PEPTIDE COMBINATIONS AND USES THEREOF IN TREATING DUST MITE ALLERGY” (ALK-ABELLO A/S, priority 2013, published 2016).

Changes are numbered by the printed parent chain. No end group written: not given here.

The target in one assay is T1, DPA10103-DPB10401 (Homo sapiens, UniProt P04440+P20036).
T1 sequence (P20036 29-260): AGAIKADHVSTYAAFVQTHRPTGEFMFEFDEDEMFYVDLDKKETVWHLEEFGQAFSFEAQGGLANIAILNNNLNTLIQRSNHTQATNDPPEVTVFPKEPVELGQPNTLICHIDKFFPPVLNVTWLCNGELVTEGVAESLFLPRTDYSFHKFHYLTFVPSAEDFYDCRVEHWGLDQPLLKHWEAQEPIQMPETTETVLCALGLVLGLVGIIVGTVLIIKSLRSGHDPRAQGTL
T1 sequence (P04440 30-258): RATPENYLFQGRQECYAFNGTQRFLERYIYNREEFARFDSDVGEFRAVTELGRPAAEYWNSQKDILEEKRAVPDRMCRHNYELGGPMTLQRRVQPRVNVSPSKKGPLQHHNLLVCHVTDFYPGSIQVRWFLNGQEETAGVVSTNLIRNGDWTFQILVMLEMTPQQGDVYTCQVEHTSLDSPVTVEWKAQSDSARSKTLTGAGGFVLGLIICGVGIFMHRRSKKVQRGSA
Briefly: Competitive MHC class II binding assay, DPA10103-DPB10401.

A further assay has as its target T2, DPA10202-DPB10501 (Homo sapiens, UniProt P04440+P20036, A42M/A65V/A84E/F191V/F64L/G113D/G114E/K142R/L158P/M116V/M62Q/P115A/Q81R/R125K/T114A/T199I/T259P/V234M).
T2 sequence (P04440 30-258 A65V/A84E/F64L/G113D/G114E/M116V/P115A/R125K/T199I/V234M): T1 sequence (P04440 30-258) with F35L, A36V, A55E, G84D, G85E, P86A, M87V, R96K, T170I, V205M
T2 sequence (P20036 29-260 A42M/F191V/K142R/L158P/M62Q/Q81R/T114A/T259P): T1 sequence (P20036 29-260) with A14M, M34Q, Q53R, T86A, K114R, L130P, F163V, T231P
Briefly: Competitive MHC class II binding assay, DPA10202-DPB10501. The conditions noted are these: positive binding at cutoff 1000 nM; read-out: HLA-DPA10202-DPB10501.

Procedure for DPA10103-DPB10401: (§1) The assay employed is a competitive MHC class II binding assay, wherein each peptide is analyzed for its ability to displace a known control binder from each of the human MHC class II allotypes shown in Table 8. Due to the nature of the competitive assay, the data for each peptide is determined as a ratio of its own IC50 to that of the control peptide.
(§2) Briefly, 0.1-1 nM of radiolabeled peptide was co-incubated at room temperature or 37° C. with purified MHC in the presence of a cocktail of protease inhibitors. Following a two- to four-day incubation, MHC bound radioactivity was determined by capturing MHC/peptide complexes on monoclonal Ab coated Lumitrac 600 plates (Greiner Bio-one, Frickenhausen, Germany), and measuring bound cpm using the TopCount (Packard Instrument Co., Meriden, Conn.) microscintillation counter. In the case of competitive assays, the concentration of peptide yielding 50% inhibition of the binding of the radiolabeled peptide was calculated. Under the conditions utilized, where [label]<[MHC] and IC50≧[MHC], the measured IC50 values are reasonable approximations of the true Kd values (Cheng and Prusoff 1973; Gulukota et al. 1997). Each peptide was tested at six different concentrations covering a 100,000-fold dose range in three or more independent experiments. […]
Procedure for DPA10202-DPB10501: as §1, §2

As for DNGYGYFAANIDLMMIEE [pep-010], the IC50 at DPA10103-DPB10401 is under 1000 nM.

On to LVGDNGVLASAIATHAKIRD [pep-110], for which the IC50 at DPA10202-DPB10501 was under 1000 nM.
